Results: US8415374B2, “Combinations of hepatitis C virus inhibitors” (Bristol-Myers Squibb Company, priority 2009, dated 2013)
“And” between values parts separate entries of the source, which are not always exact repeats. Identical values can stand only once. Like-named read-outs stand apart in the source and are kept apart here.

Legend:
Type in all cases: cell-based, Hepatitis C virus
[1] = system: genotype 1a HCV replicon cells; experiment: HCV replicon luciferase assay, genotype 1a (monotherapy and combination studies); conditions: genotype 1a replicon, monotherapy, 3 days
[2] = system: genotype 1b HCV replicon cells; experiment: HCV replicon luciferase assay, genotype 1b (monotherapy and combination studies)
Description: (§1) The Huh-7 cell-line used for these studies was obtained from Dr. Ralf Bartenschlager (University of Heidelberg, Heidelberg, Germany) and was propagated in DMEM containing 10% FBS, 10 U/ml penicillin and 10 μg/ml streptomycin. The HCV replicons used in these studies were generated at Bristol-Myers Squibb using the procedure described in WO2004014852. The coding sequence of the published genotype 1b HCV replicon (Lohmann, V., F. Korner, J.-O. Koch, U. Herian, L. Theilmann, and R. Bartenschlager 1999, Science 285:110-113) was synthesized by Operon Technologies, Inc. (Alameda, Calif.) using the sequence set forth in EMBL Accession No. AJ242652, nucleotides 1801 to 7758. The functional replicon was then assembled in plasmid pGem9zf(+) (Promega, Madison, Wis.) using standard molecular biology techniques. To create a replicon encoding a luciferase reporter, the gene encoding humanized Renilla Luciferase protein was introduced upstream of the neomycin phosphotransferase gene. The resulting replicon consists of (i) the HCV 5′ UTR fused to the first 12 amino acids of the capsid protein, (ii) the renilla luciferase gene, (iii) the neomycin phosphotransferase gene (neo), (iv) the IRES from encephalomyocarditis virus (EMCV), and (v) HCV NS3 to NS5B genes and the HCV 3′ UTR.
(§2) HCV replicon cell lines were isolated from colonies as described by Lohman, et. al (Lohmann, V., F. Korner, J.-O. Koch, U. Herian, L. Theilmann, and R. Bartenschlager 1999, Science 285:110-113) and used for all experiments. Briefly, replicon clones were linearized with ScaI and RNA transcripts synthesized in vitro using the T7 MegaScript transcription kit (Ambion, Austin, Tex.) according to manufacturer's directions. Ten to 20 μg of in vitro transcribed replicon RNA was introduced into 4−5×10^6 Huh-7 cells by transfection with DMRIE-C reagent (Invitrogen Corporation, Carlsbad, Calif.) following manufacturer's protocols. After 24 h, selective media containing 0.5 mg/mL Geneticin (G418, Gibco-BRL, Rockville, Md.) was added and media was changed every 3 to 5 days. After approximately 4 weeks, cells were expanded for further analysis. Cells were maintained at 37° C. in DMEM (Gibco-BRL, Rockville, Md.) with 10% heat inactivated calf serum (Sigma), penicillin/streptomycin, and 0.5 mg/ml G418.
(§3) To determine compound efficacy, HCV replicon cells were plated at a density of 10^4 per well in 96-well plates in DMEM media containing 10% FBS. Following incubation overnight, compounds serially diluted in DMSO, or DMSO alone, were added to individual wells to a final DMSO concentration of 0.5%. Cell plates were then incubated at 37° C. for 3 days prior to assaying for cytotoxicity and HCV inhibition. Cell viability was measured using an Alamar blue assay and CC50 values were calculated using the median effect equation.
(§4) Plates were then washed two times with PBS and renilla luciferase activity assayed using a Dual-Glo Luciferase Assay System (Promega Corporation, Madison, Wis.) according to the manufacturer's directions. Plates were read on a TopCount NXT Microplate Scintillation and Luminescence Counter (Packard Instrument Company). The 50% effective concentration (EC50) was calculated by using Excel Fit (Version 2.0, Build 30). Known x (compound concentration) and y (% relative to DMSO-only control wells) values were used to calculate the EC50 with Excel Fit equation 205, represented as y=A+((B−A)/(1+((C/x)^D))), where A and B equal the bottom and top plateaus of the curve, respectively, C equals the x value at the middle of the curve, and D equals the slope factor.
(§5) For inhibitor combination studies, IFN-α and inhibitors of HCV NS5A and the NS3 protease were each tested at eleven concentrations. Stock solutions, 200 times the desired final assay concentration, were prepared by 3-fold dilution in DMSO prior to addition to cells/media. The compounds were tested as monotherapies and in combinations with the compound of formula (I) at various concentration ratios.

HCV replicon [3] = experiment: HCV replicon luciferase assay, triple combinations with lambda interferons (genotype not stated)
Description: as §1, §2, §3, §4, §5

HCV replicon [4] = experiment: as above; conditions: monotherapy (Table 6)

**Q.** For `C=C[C@@H]1C[C@]1(NC(=O)[C@@H]1C[C@@H](Oc2ncc(OC)c3ccc(Cl)cc23)CN1C(=O)[C@@H](NC(=O)OC(C)(C)C)C(C)(C)C)C(=O)NS(=O)(=O)C1CC1` [NS3 protease inhibitor of formula (II)], which EC50 ([1]; Hepatitis C virus, 72 h, read-out: NS3 Protease Inhibitor EC50) is on record?
**A.** 7.8 nM

**Q.** And the EC50 ([1]; read-out: NS3 Protease Inhibitor EC50)?
**A.** 8.5 nM

**Q.** And the EC50 ([2]; Hepatitis C virus, 72 h, genotype 1b replicon, monotherapy, 3 days (Table 3), read-out: NS3 Protease Inhibitor EC50)?
**A.** 0.5 nM

**Q.** What about the EC50 ([2]; Hepatitis C virus, genotype 1b replicon cells, monotherapy (Table 4), read-out: NS3 Protease Inhibitor EC50) of the same compound?
**A.** 1.3 nM

**Q.** And the EC50 ([2]; genotype 1b replicon cells, monotherapy (Table 4), read-out: NS3 Protease Inhibitor EC50)?
**A.** 2.2 nM and 1.9 nM and 1.5 nM

**Q.** And the EC50 ([2]; genotype 1b replicon, monotherapy, 3 days (Table 3), read-out: NS3 Protease Inhibitor EC50)?
**A.** 0.6 nM

**Q.** And the EC50 (HCV replicon [3]; Hepatitis C virus, monotherapy (Table 5), read-out: NS3 Protease Inhibitor EC50)?
**A.** 0.63 nM

**Q.** And the EC50 (HCV replicon [3]; Hepatitis C virus, monotherapy (Table 6), read-out: NS3 Protease Inhibitor EC50)?
**A.** 1.4 nM

**Q.** And the EC50 (HCV replicon [3]; monotherapy (Table 5), read-out: NS3 Protease Inhibitor EC50)?
**A.** 0.947 nM and 1.1 nM

**Q.** What about the EC50 (HCV replicon [3]; monotherapy (Table 6), read-out: NS3 Protease Inhibitor EC50) of the same compound?
**A.** 1.2 nM and 2.3 nM

**Q.** For `COC(=O)N[C@H](C(=O)N1CCC[C@H]1c1ncc(-c2ccc(-c3ccc(-c4cnc([C@@H]5CCCN5C(=O)[C@@H](NC(=O)OC)C(C)C)[nH]4)cc3)cc2)[nH]1)C(C)C` [NS5A inhibitor of formula (I)], which EC50 ([1]; Hepatitis C virus, 72 h, read-out: NS5A Inhibitor EC50) is on record?
**A.** 0.037 nM

**Q.** And the EC50 ([1]; read-out: NS5A Inhibitor EC50)?
**A.** 0.045 nM

**Q.** What about the EC50 ([2]; Hepatitis C virus, 72 h, genotype 1b replicon, monotherapy, 3 days (Table 3), read-out: NS5A Inhibitor EC50) of the same compound?
**A.** 0.003 nM

**Q.** And the EC50 ([2]; Hepatitis C virus, genotype 1b replicon cells, monotherapy (Table 4), read-out: NS5A Inhibitor EC50)?
**A.** 0.005 nM

**Q.** And the EC50 ([2]; genotype 1b replicon cells, monotherapy (Table 4), read-out: NS5A Inhibitor EC50)?
**A.** 0.006 nM

**Q.** What about the EC50 (HCV replicon [3]; Hepatitis C virus, monotherapy (Table 5), read-out: NS5A Inhibitor EC50) of the same compound?
**A.** 0.003 nM

**Q.** What about the EC50 (HCV replicon [3]; Hepatitis C virus, monotherapy (Table 6), read-out: NS5A Inhibitor EC50) of the same compound?
**A.** 0.008 nM

**Q.** And the EC50 (HCV replicon [3]; monotherapy (Table 5), read-out: NS5A Inhibitor EC50)?
**A.** 0.004 nM

**Q.** And the EC50 (HCV replicon [3]; monotherapy (Table 6), read-out: NS5A Inhibitor EC50)?
**A.** 0.009 nM and 0.005 nM

**Q.** With “rIFNλ1: Recombinant IL-29 expressed in E. coli as a modified N-terminal methionylated form of human IL-29” as the compound, how does the “rIFNλ1 EC50” value (HCV replicon [4]) read?
**A.** 0.52 ng/mL and 0.27 ng/mL and 0.53 ng/mL
